{"source": "patent US20100204224A1", "about": "“AZACYCLIC COMPOUNDS AS INHIBITORS OF SENSORY NEURONE SPECIFIC SODIUM CHANNELS” (priority 2005, published 2010)", "target": "T1, human Nav1.8 (hNav1.8) ion channel (Homo sapiens, UniProt Q9Y5Y9)", "T1 construct": "expressed in transfected cells", "T1 sequence (Q9Y5Y9 whole entry)": "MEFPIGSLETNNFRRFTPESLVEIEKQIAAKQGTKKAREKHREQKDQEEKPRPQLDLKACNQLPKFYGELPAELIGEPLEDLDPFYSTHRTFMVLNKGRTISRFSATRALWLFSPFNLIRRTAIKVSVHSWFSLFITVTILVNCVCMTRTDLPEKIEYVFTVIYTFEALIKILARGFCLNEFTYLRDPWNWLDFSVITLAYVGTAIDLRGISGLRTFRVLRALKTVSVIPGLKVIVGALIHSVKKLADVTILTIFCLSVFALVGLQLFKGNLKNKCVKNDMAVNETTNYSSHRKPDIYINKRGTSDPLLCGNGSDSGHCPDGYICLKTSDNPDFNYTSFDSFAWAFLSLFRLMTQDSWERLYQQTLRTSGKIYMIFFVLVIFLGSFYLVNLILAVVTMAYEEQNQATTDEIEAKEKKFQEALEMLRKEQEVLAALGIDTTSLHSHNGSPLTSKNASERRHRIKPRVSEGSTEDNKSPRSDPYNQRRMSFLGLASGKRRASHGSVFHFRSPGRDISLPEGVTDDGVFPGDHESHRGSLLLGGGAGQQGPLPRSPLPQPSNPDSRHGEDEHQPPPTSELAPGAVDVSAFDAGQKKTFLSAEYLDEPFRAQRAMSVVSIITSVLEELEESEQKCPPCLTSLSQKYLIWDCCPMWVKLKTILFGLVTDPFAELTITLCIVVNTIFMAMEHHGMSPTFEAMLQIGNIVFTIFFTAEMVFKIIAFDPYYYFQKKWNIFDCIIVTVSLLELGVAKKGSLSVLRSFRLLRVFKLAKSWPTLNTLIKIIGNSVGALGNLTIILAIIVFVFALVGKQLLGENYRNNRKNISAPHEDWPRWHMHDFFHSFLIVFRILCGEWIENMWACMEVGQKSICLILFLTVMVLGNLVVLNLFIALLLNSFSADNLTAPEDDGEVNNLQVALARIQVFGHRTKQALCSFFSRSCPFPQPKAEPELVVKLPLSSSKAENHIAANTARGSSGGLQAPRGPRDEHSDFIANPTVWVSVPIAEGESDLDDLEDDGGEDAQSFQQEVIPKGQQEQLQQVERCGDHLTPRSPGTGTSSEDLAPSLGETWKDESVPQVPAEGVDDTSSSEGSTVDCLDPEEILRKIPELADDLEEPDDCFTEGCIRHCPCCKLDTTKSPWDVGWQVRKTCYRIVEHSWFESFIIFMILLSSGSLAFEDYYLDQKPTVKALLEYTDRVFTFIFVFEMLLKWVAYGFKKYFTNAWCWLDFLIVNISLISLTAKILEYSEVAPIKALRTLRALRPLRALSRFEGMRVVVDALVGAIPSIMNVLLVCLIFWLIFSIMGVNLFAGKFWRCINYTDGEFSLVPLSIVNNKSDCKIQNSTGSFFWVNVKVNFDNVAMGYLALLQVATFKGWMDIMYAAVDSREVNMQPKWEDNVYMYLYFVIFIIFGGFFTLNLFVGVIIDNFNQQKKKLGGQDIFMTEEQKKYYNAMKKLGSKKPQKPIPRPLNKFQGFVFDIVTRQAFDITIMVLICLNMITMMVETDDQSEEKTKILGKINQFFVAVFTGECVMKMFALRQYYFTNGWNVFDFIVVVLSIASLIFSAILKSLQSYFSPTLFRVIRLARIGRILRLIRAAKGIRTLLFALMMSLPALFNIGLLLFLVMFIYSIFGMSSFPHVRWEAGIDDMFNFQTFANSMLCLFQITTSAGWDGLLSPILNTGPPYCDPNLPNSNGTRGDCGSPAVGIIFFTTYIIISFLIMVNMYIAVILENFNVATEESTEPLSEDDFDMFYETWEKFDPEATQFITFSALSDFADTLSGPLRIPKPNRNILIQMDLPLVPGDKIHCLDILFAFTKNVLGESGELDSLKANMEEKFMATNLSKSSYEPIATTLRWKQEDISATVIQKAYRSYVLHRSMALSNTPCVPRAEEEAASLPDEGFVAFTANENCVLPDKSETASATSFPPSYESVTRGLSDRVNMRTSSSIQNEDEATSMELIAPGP", "test": "Inhibition of human Nav1.8 stably expressed in SH-SY-5Y cells (membrane potential dye fluorescence assay)", "type": "cell-based", "conditions": "FLIPR membrane potential dye, 10 μM pyrethroid, 250 nM TTX, test concentration range 100 μM-0.05 μM", "key": {"[1]": {"conditions": "SH-SY-5Y hNav1.8 cells, read-out: hNav1.8 IC50"}, "[2]": {"conditions": "hNav1.8 IC50, SH-SY-5Y hNav1.8 cells"}}, "note": "Counter-ions that a name gives are not always drawn. Like-named read-outs stand apart in the source and are kept apart here.", "data": [{"smiles": "Cc1ccccc1C(C)N1CC2CC1CN2C(=O)Nc1ccc(OCCc2scnc2C)cc1", "note": "(stereo not drawn) [Example 42, 5-(1-o-Tolyl-ethyl)-2,5-diaza-bicyclo[2.2.1]heptane-2-carboxylic acid {4-[2-(4-methyl-thiazol-5-yl)-ethoxy]-phenyl}-amide]", "values": [{"measurement": "IC50", "setting": "[1]", "result": 2100, "unit": "nM"}]}, {"smiles": "CC(c1ccccc1Cl)N1CC2CC1CN2C(=O)c1ccc(Oc2cccc(F)c2)cc1", "note": "(stereo not drawn) [Example 169, {5-[1-(2-Chloro-phenyl)-ethyl]-2,5-diaza-bicyclo[2.2.1]hept-2-yl}-[4-(3-fluoro-phenoxy)-phenyl]-methanone]", "values": [{"measurement": "IC50", "setting": "[1]", "result": 840, "unit": "nM"}]}, {"smiles": "CC(c1ccccc1Br)N1CC2CC1CN2C(=O)Cc1ccc(Oc2ccc(F)cc2)cc1", "note": "(stereo not drawn) [Example 153, 1-{5-[1-(2-Bromo-phenyl)-ethyl]-2,5-diaza-bicyclo[2.2.1]hept-2-yl}-2-[4-(4-fluoro-phenoxy)-phenyl]-ethanone]", "values": [{"measurement": "IC50", "setting": "[2]", "result": 3330, "unit": "nM"}]}, {"smiles": "Cc1ccccc1C(C)N1CC2CC1CN2C(=O)Nc1ccc(Oc2ccccc2)cc1", "note": "(stereo not drawn) [Example 4, 5-(1-o-Tolyl-ethyl)-2,5-diaza-bicyclo[2.2.1]heptane-2-carboxylic acid (4-phenoxy-phenyl)-amide]", "values": [{"measurement": "IC50", "setting": "[1]", "result": 320, "unit": "nM"}]}, {"smiles": "Cc1ccccc1C(C)N1CC2CC1CN2C(=O)Nc1ccc(Oc2ccc(F)cc2)cc1", "note": "(stereo not drawn) [Example 78, 5-(1-o-Tolyl-ethyl)-2,5-diaza-bicyclo[2.2.1]heptane-2-carboxylic acid [4-(4-fluoro-phenoxy)-phenyl]-amide fumarate salt]", "values": [{"measurement": "IC50", "setting": "[2]", "result": 230, "unit": "nM"}]}, {"smiles": "Cc1ccccc1C(C)N1CC2CC1CN2C(=O)Nc1ccc(Oc2ccc(F)cc2)cc1", "note": "(single isomer, unassigned) [Example 74, 5-(1-o-Tolyl-ethyl)-2,5-diaza-bicyclo[2.2.1]heptane-2-carboxylic acid [4-(4-fluoro-phenoxy)-phenyl]-amide]", "values": [{"measurement": "IC50", "setting": "[2]", "result": 110, "unit": "nM"}]}, {"smiles": "Cc1ccccc1C(C)N1CC2CC1CN2C(=O)Nc1ccc(OC2CCOCC2)cc1", "note": "(stereo not drawn) [Example 22, 5-(1-o-Tolyl-ethyl)-2,5-diaza-bicyclo[2.2.1]heptane-2-carboxylic acid [4-(tetrahydro-pyran-4-yloxy)-phenyl]-amide]", "values": [{"measurement": "IC50", "setting": "[1]", "result": 18900, "unit": "nM"}]}, {"smiles": "CC(c1ccccc1Cl)N1CC2CC1CN2C(=O)N(C)c1ccc(Oc2ccc(F)cc2)cc1", "note": "(stereo not drawn) [Example 115, 5-[1-(2-Chloro-phenyl)-ethyl]-2,5-diaza-bicyclo[2.2.1]heptane-2-carboxylic acid [4-(4-fluoro-phenoxy)-phenyl]-methyl-amide]", "values": [{"measurement": "IC50", "setting": "[1]", "result": 1980, "unit": "nM"}]}, {"smiles": "CC(c1ccc(F)cc1Cl)N1CC2CC1CN2C(=O)Nc1ccc(Oc2ccccc2)cc1", "note": "(stereo not drawn) [Example 7, 5-[1-(2-Chloro-4-fluoro-phenyl)-ethyl]-2,5-diaza-bicyclo[2.2.1]heptane-2-carboxylic acid (4-phenoxy-phenyl)-amide]", "values": [{"measurement": "IC50", "setting": "[1]", "result": 4320, "unit": "nM"}]}, {"smiles": "Cc1ccccc1C(C)N1CC2CC1CN2C(=O)Nc1ccc(OCCn2ccnc2)cc1", "note": "(stereo not drawn) [Example 43, 5-(1-o-Tolyl-ethyl)-2,5-diaza-bicyclo[2.2.1]heptane-2-carboxylic acid [4-(2-imidazol-1-yl-ethoxy)-phenyl]-amide]", "values": [{"measurement": "IC50", "setting": "[1]", "result": "≥ 30000", "unit": "nM"}]}, {"smiles": "Cc1ccsc1CN1CC2CC1CN2C(=O)Nc1ccc(Oc2ccccc2)nc1", "note": "(stereo not drawn) [Example 2, 5-(3-Methyl-thiophen-2-ylmethyl)-2,5-diaza-bicyclo[2.2.1]heptane-2-carboxylic acid (6-phenoxy-pyridin-3-yl)-amide]", "values": [{"measurement": "IC50", "setting": "[1]", "result": 3740, "unit": "nM"}]}, {"smiles": "CC(Cc1ccccc1Cl)N1CC2CC1CN2C(=O)Nc1ccc(C(F)(F)F)cc1", "note": "(stereo not drawn) [Example 82, 5-[2-(2-Chloro-phenyl)-1-methyl-ethyl]-2,5-diaza-bicyclo[2.2.1]heptane-2-carboxylic acid (4-trifluoromethyl-phenyl)-amide]", "values": [{"measurement": "IC50", "setting": "[1]", "result": 440, "unit": "nM"}]}, {"smiles": "CC(c1ccccc1Cl)N1CC2CC1CN2C(=O)c1ccc(Oc2cccc(C#N)c2)cc1", "note": "(stereo not drawn) [Example 174, 3-(4-{5-[1-(2-Chloro-phenyl)-ethyl]-2,5-diaza-bicyclo[2.2.1]heptane-2-carbonyl}-phenoxy)-benzonitrile]", "values": [{"measurement": "IC50", "setting": "[1]", "result": 1400, "unit": "nM"}]}, {"smiles": "Cc1ccccc1CC(C)N1CC2CC1CN2C(=O)Nc1ccc(Oc2ccccc2)cc1", "note": "(stereo not drawn) [Example 58, 5-(1-Methyl-2-o-tolyl-ethyl)-2,5-diaza-bicyclo[2.2.1]heptane-2-carboxylic acid (4-phenoxy-phenyl)-amide]", "values": [{"measurement": "IC50", "setting": "[1]", "result": 230, "unit": "nM"}]}, {"smiles": "CC(c1ccc(F)cc1Cl)N1CC2CC1CN2C(=O)Nc1ccc(Oc2ccc(F)cc2)cc1", "note": "(stereo not drawn) [Example 133, 5-[1-(2-Chloro-4-fluoro-phenyl)-ethyl]-2,5-diaza-bicyclo[2.2.1]heptane-2-carboxylic acid [4-(4-fluoro-phenoxy)-phenyl]-amide]", "values": [{"measurement": "IC50", "setting": "[1]", "result": 1190, "unit": "nM"}]}, {"smiles": "CC(Cc1c(F)cccc1Cl)N1CC2CC1CN2C(=O)Nc1ccc(C(F)(F)F)cc1", "note": "(stereo not drawn) [Example 85, 5-[2-(2-Chloro-6-fluoro-phenyl)-1-methyl-ethyl]-2,5-diaza-bicyclo[2.2.1]heptane-2-carboxylic acid (4-trifluoromethyl-phenyl)-amide]", "values": [{"measurement": "IC50", "setting": "[1]", "result": 630, "unit": "nM"}]}, {"smiles": "Cc1ccccc1C(C)N1CC2CC1CN2C(=O)Cc1ccc(Oc2ccccc2)cc1", "note": "(stereo not drawn) [Example 36, 2-(4-Phenoxy-phenyl)-1-[5-(1-o-tolyl-ethyl)-2,5-diaza-bicyclo[2.2.1]hept-2-yl]-ethanone]", "values": [{"measurement": "IC50", "setting": "[2]", "result": 810, "unit": "nM"}]}, {"smiles": "CC(c1ccccc1Cl)N1CC2CC1CN2C(=O)Nc1ccc(Oc2ccccc2)cc1", "note": "(single isomer, unassigned) [Example 12, 5-[1-(2-Chloro-phenyl)-ethyl]-2,5-diaza-bicyclo[2.2.1]heptane-2-carboxylic acid (4-phenoxy-phenyl)-amide]", "values": [{"measurement": "IC50", "setting": "[1]", "result": 360, "unit": "nM"}]}, {"smiles": "Cc1ccccc1C(C)N1CC2CC1CN2C(=O)Nc1ccc(OCCN2CCCC2)cc1", "note": "(stereo not drawn) [Example 41, 5-(1-o-Tolyl-ethyl)-2,5-diaza-bicyclo[2.2.1]heptane-2-carboxylic acid [4-(2-pyrrolidin-1-yl-ethoxy)-phenyl]-amide]", "values": [{"measurement": "IC50", "setting": "[1]", "result": "≥ 30000", "unit": "nM"}]}, {"smiles": "Cc1ccccc1CC(C)N1CC2CC1CN2C(=O)Nc1cccc(C(F)(F)F)c1", "note": "(stereo not drawn) [Example 67, 5-(1-Methyl-2-o-tolyl-ethyl)-2,5-diaza-bicyclo[2.2.1]heptane-2-carboxylic acid (3-trifluoromethyl-phenyl)-amide]", "values": [{"measurement": "IC50", "setting": "[1]", "result": 1220, "unit": "nM"}]}, {"smiles": "Cc1cc(F)ccc1C(C)N1CC2CC1CN2C(=O)Nc1ccc(C(F)(F)F)cc1", "note": "(stereo not drawn) [Example 65, 5-[1-(4-Fluoro-2-methyl-phenyl)-ethyl]-2,5-diaza-bicyclo[2.2.1]heptane-2-carboxylic acid (4-trifluoromethyl-phenyl)-amide]", "values": [{"measurement": "IC50", "setting": "[1]", "result": 600, "unit": "nM"}]}, {"smiles": "Cc1ccc(C(C)N2CC3CC2CN3C(=O)Nc2ccc(Oc3ccc(F)cc3)cc2)c(C)c1", "note": "(stereo not drawn) [Example 116, 5-[1-(2,4-Dimethyl-phenyl)-ethyl]-2,5-diaza-bicyclo[2.2.1]heptane-2-carboxylic acid [4-(4-fluoro-phenoxy)-phenyl]-amide]", "values": [{"measurement": "IC50", "setting": "[1]", "result": 290, "unit": "nM"}]}, {"smiles": "CC(c1ccc(Cl)cc1Cl)N1CC2CC1CN2C(=O)Cc1ccc(Oc2ccc(F)cc2)cc1", "note": "(stereo not drawn) [Example 155, 1-{5-[1-(2,4-Dichloro-phenyl)-ethyl]-2,5-diaza-bicyclo[2.2.1]hept-2-yl}-2-[4-(4-fluoro-phenoxy)-phenyl]-ethanone]", "values": [{"measurement": "IC50", "setting": "[2]", "result": 18200, "unit": "nM"}]}, {"smiles": "O=C(Nc1ccc(Oc2cccc(F)c2)cc1)N1CC2CC1CN2C1Cc2ccccc2C1", "note": "(stereo not drawn) [Example 114, 5-Indan-2-yl-2,5-diaza-bicyclo[2.2.1]heptane-2-carboxylic acid [4-(3-fluoro-phenoxy)-phenyl]-amide]", "values": [{"measurement": "IC50", "setting": "[1]", "result": 80, "unit": "nM"}]}, {"smiles": "O=C(Nc1ccc(Oc2ccc(F)cc2)cc1)N1CC2CC1CN2C1CCc2ccccc2C1", "note": "(stereo not drawn) [Example 101, 5-(1,2,3,4-Tetrahydro-naphthalen-2-yl)-2,5-diaza-bicyclo[2.2.1]heptane-2-carboxylic acid [4-(4-fluoro-phenoxy)-phenyl]-amide methanesulfonate salt]", "values": [{"measurement": "IC50", "setting": "[1]", "result": 340, "unit": "nM"}]}, {"smiles": "Cc1ccccc1C(C)N1CC2CC1CN2C(=O)Cc1ccc(Oc2cccc(F)c2)cc1", "note": "(stereo not drawn) [Example 171, 2-[4-(3-Fluoro-phenoxy)-phenyl]-1-[5-(1-o-tolyl-ethyl)-2,5-diaza-bicyclo[2.2.1]hept-2-yl]-ethanone]", "values": [{"measurement": "IC50", "setting": "[2]", "result": 670, "unit": "nM"}]}, {"smiles": "O=C(Nc1ccc(Oc2ccccc2)cc1)N1CC2CC1CN2C1Cc2ccccc2C1", "note": "(stereo not drawn) [Example 105, 5-Indan-2-yl-2,5-diaza-bicyclo[2.2.1]heptane-2-carboxylic acid (4-phenoxy-phenyl)-amide]", "values": [{"measurement": "IC50", "setting": "[1]", "result": 200, "unit": "nM"}]}, {"smiles": "CC(c1ccccc1Cl)N1CC2CC1CN2C(=O)Nc1ccc(Oc2cccc(F)c2)cc1", "note": "(stereo not drawn) [Example 108, 5-[1-(2-Chloro-phenyl)-ethyl]-2,5-diaza-bicyclo[2.2.1]heptane-2-carboxylic acid [4-(3-fluoro-phenoxy)-phenyl]-amide]", "values": [{"measurement": "IC50", "setting": "[1]", "result": 600, "unit": "nM"}]}, {"smiles": "COCCCOc1ccc(NC(=O)N2CC3CC2CN3C(C)c2ccccc2C)cc1", "note": "(stereo not drawn) [Example 27, 5-(1-o-Tolyl-ethyl)-2,5-diaza-bicyclo[2.2.1]heptane-2-carboxylic acid [4-(3-methoxy-propoxy)-phenyl]-amide]", "values": [{"measurement": "IC50", "setting": "[1]", "result": 8480, "unit": "nM"}]}, {"smiles": "CC(c1ccccc1Cl)N1CC2CC1CN2C(=O)c1ccc(Oc2ccc(F)cc2)c(F)c1", "note": "(stereo not drawn) [Example 178, {5-[1-(2-Chloro-phenyl)-ethyl]-2,5-diaza-bicyclo[2.2.1]hept-2-yl}-[3-fluoro-4-(4-fluoro-phenoxy)-phenyl]-methanone methanesulfonate salt]", "values": [{"measurement": "IC50", "setting": "[1]", "result": 610, "unit": "nM"}]}, {"smiles": "CC(c1ccccc1Cl)N1CC2CC1CN2C(=O)c1ccc(Oc2ccc(F)cc2)cc1", "note": "(stereo not drawn) [Example 151, {5-[1-(2-Chloro-phenyl)-ethyl]-2,5-diaza-bicyclo[2.2.1]hept-2-yl}-[4-(4-fluoro-phenoxy)-phenyl]-methanone]", "values": [{"measurement": "IC50", "setting": "[1]", "result": 1110, "unit": "nM"}]}, {"smiles": "CC(c1ccccc1Cl)N1CCC2(CCN(C(=O)Nc3ccc(Oc4ccc(F)cc4)cc3)C2)C1", "note": "(stereo not drawn) [Example 111, 7-[1-(2-Chloro-phenyl)-ethyl]-2,7-diaza-spiro[4.4]nonane-2-carboxylic acid [4-(4-fluoro-phenoxy)-phenyl]-amide]", "values": [{"measurement": "IC50", "setting": "[1]", "result": 380, "unit": "nM"}]}, {"smiles": "CC(c1ccccc1Cl)N1CC2CC1CN2C(=O)c1cc2cc(Cl)ccc2[nH]1", "note": "(stereo not drawn) [Example 150, (5-Chloro-1H-indol-2-yl)-{5-[1-(2-chloro-phenyl)-ethyl]-2,5-diaza-bicyclo[2.2.1]hept-2-yl}-methanone]", "values": [{"measurement": "IC50", "setting": "[1]", "result": 18200, "unit": "nM"}]}]}
